Test results from US11787835B2, “C19 scaffolds and steroids and methods of use and manufacture thereof” (Trustees of Dartmouth College, priority 2018, dated 2023).

Columns and labels:
[1] = tested on: DU-145 prostate cancer cells (endogenous ERβ); test: Alkaline phosphatase activity in DU-145 prostate cancer cells; format: cell-based, human; details: DU-145 cells, 24 hours, 5 μM, FIG. 2
Experimental: FIG. 2 is a bar graph showing alkaline phosphatase activity in human DU-145 prostate cancer cells (17β-estradiol, Compound 100, and Compound 101 were evaluated at 5 μM).
The DU-145 prostate cancer cell line only expresses ERβ and can be used as a model to examine the activation of ERβ in the absence of any potential confounding signal driven by ERα. Alkaline phosphatase (ALP) expression is induced in an ER-dependent manner and has been used to characterize the activity of synthetic ER agonists and antagonists.
In order to examine the ability of Compound 100 and Compound 101 to activate ERβ in the context of a cell line expressing endogenous ERβ, DU-145 cells were treated for 24 hours with either 17β-estradiol, Compound 100, or Compound 101 and ALP activity derived from the cells was examined.

ERβ = ERβ (Homo sapiens, UniProt Q92731); test: ERβ agonist assay (functional activity at estrogen receptors); format: cell-based
Experimental: FIG. 1 is a set of line graphs showing the results of ERβ and ERα agonist assays for Compounds 100 and 101.
Compounds 100 and 101 were evaluated for their functional activity at estrogen receptors (both ERα and ERβ). 17β-estradiol was used as a control, as it is appreciated to be a potent agonist of both ERα and ERβ.

U251 and U87 cells [2] = test: Growth inhibition and viable cell counts of glioblastoma cell lines; format: cell-based, human; details: for inhibition of glioma cell growth (IC50), fold lower concentration compared to TMZ: after 24 hours, FIG. 3A
Experimental: FIG. 3A-3B are line graphs depicting (A) dose dependent growth inhibition of U251 and U87 cells treated with Compound 100, Compound 101, TMZ, and vehicle control DMSO (n=4) and (B) viable cell counts of U251 and U87 cells treated with Compound 100, Compound 101, TMZ, and vehicle control DMSO determined every 24 hours for 96 hours (n=4)
(§1) To determine the biological effect of Compound 100 and Compound 101, human glioblastoma-derived cell lines U251 and U87 were treated with varying concentrations of Compound 100, Compound 101, temazolomide (TMZ; a standard of care chemotherapeutic agent), or vehicle-toxicity control, dimethylsulfoxide (DMSO) used at final volumes that were identical to those used to attain all concentrations tested of Compound 100 and Compound 101.

glioblastoma cell lines = test: MTT cell viability assay in glioblastoma cell lines; format: cell-based, human
Experimental: as §1

U251 and U87 cells [3] = test: Annexin V/7-AAD apoptosis FACS analysis; format: cell-based, human; details: 24 hours, Annexin V and 7-AAD, FIG. 3C
Experimental: FIG. 3C is a flow cytometric analysis of U251 and U87 co-stained with Annexin V-FITC/7-AAD after treatment with Compound 100, Compound 101, TMZ, and vehicle control DMSO (n=4).
(§2) In order to elucidate the mechanism of this cell death, glioblastoma cells treated for 24 hours with Compound 100, Compound 101, TMZ, or DMSO control were analyzed for early and late apoptosis markers (Annexin V and 7-Aminoactinomycin D) by FACS analyses. […] Additionally, over a period of five days, morphological changes in U251 and U87 cells treated with Compound 100 and Compound 101 were tracked using the Incucyte live cell imaging system.

U251 and U87 cells [4] = test: Incucyte live cell imaging of morphological changes; format: cell-based, human; details: over five days, FIG. 3D
Experimental: FIG. 3D depicts phase-contrast images using Incucyte for live cell tracking of U251 and U87 cells in response to treatment with Compound 100, Compound 101, TMZ, and vehicle control DMSO. Live cells were tracked and imaged for 96 hours (data not shown). Scale bar=300 μm. All data in FIG. 3A-3D are representative of four independent experiments and four replicates of each treatment condition were analyzed per experiment.
as §2

established tumors = test: In vivo growth of established tumors; details: initial studies
Description: In comparison to 17β-estradiol, Compound 100 and Compound 101 have a unique profile for selective agonism of ERβ (FIG. 1).

[5] = tested on: primary glioma tumor cells from patients; test: Growth of primary glioma tumor cells from patients; format: cell-based, human
Description: The present disclosure also relates to the use of such compounds as biologically active (e.g., therapeutic) components in, for example, pharmaceutical compositions and/or directly as human and/or animal therapeutics and medicines. In certain embodiments, the compounds are ERβ selective agonists and/or may be used to treat or prevent conditions, disorders, or diseases such as cancer (e.g., breast cancer, prostate cancer, ovarian cancer, acute myeloid leukemia, and glioma, among others) or neurodegeneration. Currently there is no widely applicable cure for primary brain tumors.

Sequence of ERβ (Q92731 whole entry, species assumed): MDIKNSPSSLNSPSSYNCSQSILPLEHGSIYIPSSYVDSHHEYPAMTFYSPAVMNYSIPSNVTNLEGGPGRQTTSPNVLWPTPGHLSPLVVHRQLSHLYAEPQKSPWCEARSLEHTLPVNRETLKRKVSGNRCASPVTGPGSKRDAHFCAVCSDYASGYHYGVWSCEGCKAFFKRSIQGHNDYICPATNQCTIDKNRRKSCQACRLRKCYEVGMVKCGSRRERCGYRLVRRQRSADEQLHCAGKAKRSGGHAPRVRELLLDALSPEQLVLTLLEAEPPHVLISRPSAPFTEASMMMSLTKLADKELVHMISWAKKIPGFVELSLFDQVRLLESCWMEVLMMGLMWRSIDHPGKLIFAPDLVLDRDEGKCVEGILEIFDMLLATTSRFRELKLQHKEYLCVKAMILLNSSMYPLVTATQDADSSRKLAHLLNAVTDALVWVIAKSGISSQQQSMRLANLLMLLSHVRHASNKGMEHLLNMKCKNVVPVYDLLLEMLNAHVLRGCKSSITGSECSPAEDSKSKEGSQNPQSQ

type of ERβ agonism (ERβ)	inhibition of glioma cell growth (IC50), fold lower concentration compared to TMZ (U251 and U87 cells [2]) [fold]	Compound	induction of ALP activity [1]	viability and proliferation of glioblastoma lines (U251 and U87 cells [2]; assessed every 24 hours for 5 days, compared to TMZ or DMSO, FIG. 3B)	growth of glioblastoma cell lines (MTT) (glioblastoma cell lines)	induction of apoptosis, fold higher than TMZ or DMSO controls (U251 and U87 cells [3]) [fold]	morphological changes (adherence, cellular integrity) (U251 and U87 cells [4])	growth of established tumors in vivo (established tumors)	growth of primary glioma tumor cells from patients [5]
		C[C@]12CC[C@@H]3c4ccc(O)cc4CC[C@H]3[C@@H]1CC[C@@H]2O [17β-estradiol, reference compound]	effective in inducing ALP activity						
full agonist	50	C[C@]12CC[C@@]3(C)C(=C1C[C@@H](O)C2)CCc1cc(O)ccc13 [Compound 100, (9S,13R,16S)-9,13-dimethyl-7,9,11,12,13,15,16,17-octahydro-6H-cyclopenta[α]phenanthrene-3,16-diol]	effective at inducing ALP to levels comparable to 17β-estradiol	reduced viability and the resulting proliferation of glioblastoma lines in a dose dependent manner	significantly reduced the growth of glioblastoma cell lines in a dose-dependent manner	7	Increased loss of adherence and cellular integrity	reduces the growth of established tumors	inhibit growth
	50	C[C@@]12CC[C@]3(C)C(=C1C[C@H](O)C2)CCc1cc(O)ccc13 [Compound 101, (9R,13S,16R)-9,13-dimethyl-7,9,11,12,13,15,16,17-octahydro-6H-cyclopenta[a]phenanthrene-3,16-diol]				7			
